Activity calls are given as the source filed them. The calls are words filed in the database; no cut-off is given here.
Experiments:
HCT-116 [1] = experiment: Induction of morphological changes in human HCT-116 cells assessed as cell detachment at 3.32 to 13.28 uM measured after 48 hrs by phase contrast microscope; assay type: functional, cell-based; conditions: dose 3.32-13.28 µM
HCT-116 [2] = experiment: Induction of nuclear morphological changes in human HCT-116 cells assessed as horseshoe shaped nuclei formation measured after 48 hrs by DAPI-staining based fluorescence microscopic analysis; assay type: functional, cell-based
HCT-116 [3] = experiment: Induction of apoptosis in human HCT-116 cells assessed as necrotic cells at 3.32 uM incubated for 24 hrs by Annexin V-FITC/PI staining based flow cytometry analysis (Rvb= 0.0%); assay type: functional
HCT-116 [4] = experiment: Induction of morphological changes in human HCT-116 cells assessed as formation of apoptotic bodies incubated for 24 hrs by acridine orange/ethidium bromide staining based fluorescence microscopic analysis; assay type: functional, cell-based
HCT-116 [5] = experiment: Cell cycle arrest in human HCT-116 cells assessed as accumulation of cells in S phase at 13.28 uM measured after 48 hrs by PI staining based flow cytometry method (reference value: 8.8%); assay type: functional
HCT-116 [6] = experiment: Induction of morphological changes in human HCT-116 cells assessed as formation of necrotic bodies incubated for 24 hrs by acridine orange/ethidium bromide staining based fluorescence microscopic analysis; assay type: functional, cell-based
Cell membrane [7] = experiment: Induction of mitochondrial membrane potential loss in human HCT-116 cells assessed as depolarized cells at 6.64 uM incubated for 72 hrs by JC-1 staining based flow cytometry analysis (reference value: 0.4 %); assay type: subcellular
Cell membrane [8] = experiment: Induction of mitochondrial membrane potential loss in human HCT-116 cells assessed as depolarized cells at 13.28 uM incubated for 72 hrs by JC-1 staining based flow cytometry analysis (reference value: 0.4 %); assay type: subcellular
[9] = Cytotoxicity against rat NRK cells assessed as inhibition of cell growth measured after 72 hrs by MTT assay; assay type: toxicity, cell-based
HCT-116 [10] = experiment: Induction of apoptosis in human HCT-116 cells assessed as late apoptotic cells at 6.64 uM incubated for 24 hrs by Annexin V-FITC/PI staining based flow cytometry analysis (Rvb= 0.1%); assay type: functional
HCT-116 [11] = experiment: Inhibition of colony formation in human HCT-116 cells measured after 14 days; assay type: functional, cell-based; conditions: dose 3.32-13.28 µM, time 14.0 day
HCT-116 [12] = experiment: Cell cycle arrest in human HCT-116 cells assessed as accumulation of cells in sub-G1 phase at 13.28 uM measured after 48 hrs by PI staining based flow cytometry method (reference value: 4.6%); assay type: functional
HCT-116 [13] = experiment: Cell cycle arrest in human HCT-116 cells assessed as accumulation of cells in sub-G1 phase at 6.64 uM measured after 48 hrs by PI staining based flow cytometry method (reference value: 4.6%); assay type: functional
HCT-116 [14] = experiment: Induction of ROS production in human HCT-116 cells at 3.32 uM incubated for 72 hrs by DCFDA staining based fluorescence microscopic analysis; assay type: functional, cell-based
HCT-116 [15] = experiment: Induction of apoptosis in human HCT-116 cells assessed as reduction in cell viability at 3.32 to 13.28 uM measured after 48 hrs by phase contrast microscope; assay type: functional, cell-based; conditions: dose 3.32-13.28 µM
Cell membrane [16] = experiment: Induction of mitochondrial membrane potential loss in human HCT-116 cells assessed as polarized cells at 13.28 uM incubated for 72 hrs by JC-1 staining based flow cytometry analysis (reference value: 99.6 %); assay type: subcellular
A549 = experiment: Cytotoxicity against human A549 cells assessed as inhibition of cell growth measured after 72 hrs by MTT assay; assay type: functional, cell-based; conditions: A549, 72 h
HCT-116 [17] = experiment: Induction of apoptosis in human HCT-116 cells assessed as viable cells at 13.28 uM incubated for 24 hrs by Annexin V-FITC/PI staining based flow cytometry analysis (Rvb= 99.7%); assay type: functional; conditions: read-out: Activity
Cell membrane [18] = experiment: Induction of mitochondrial membrane potential loss in human HCT-116 cells assessed as polarized cells at 3.32 uM incubated for 72 hrs by JC-1 staining based flow cytometry analysis (reference value: 99.6 %); assay type: subcellular
HCT-116 [19] = experiment: Induction of apoptosis in human HCT-116 cells assessed as viable cells at 6.64 uM incubated for 24 hrs by Annexin V-FITC/PI staining based flow cytometry analysis (Rvb= 99.7%); assay type: functional; conditions: read-out: Activity
SK-MEL-28 = experiment: Cytotoxicity against human SK-MEL-28 cells assessed as inhibition of cell growth measured after 72 hrs by MTT assay; assay type: functional, cell-based; conditions: SK-MEL-28, 72 h
HCT-116 [20] = experiment: Cell cycle arrest in human HCT-116 cells assessed as accumulation of cells in G0/G1 phase at 6.64 uM measured after 48 hrs by PI staining based flow cytometry method (reference value: 79%); assay type: functional
HCT-116 [21] = experiment: Cell cycle arrest in human HCT-116 cells assessed as accumulation of cells in G0/G1 phase at 13.28 uM measured after 48 hrs by PI staining based flow cytometry method (reference value: 79%); assay type: functional
HCT-116 [22] = experiment: Cell cycle arrest in human HCT-116 cells assessed as accumulation of cells in G2/M phase at 3.32 uM measured after 48 hrs by PI staining based flow cytometry method (reference value: 6.7%); assay type: functional
HCT-116 [23] = experiment: Induction of nuclear morphological changes in human HCT-116 cells assessed as change in nuclear shape measured after 48 hrs by DAPI-staining based fluorescence microscopic analysis; assay type: functional, cell-based
HCT-116 [24] = experiment: Induction of apoptosis in human HCT-116 cells assessed as viable cells at 3.32 uM incubated for 24 hrs by Annexin V-FITC/PI staining based flow cytometry analysis (Rvb= 99.7%); assay type: functional; conditions: read-out: Activity
HCT-116 [25] = experiment: Induction of apoptosis in human HCT-116 cells assessed as early apoptotic cells at 6.64 uM incubated for 24 hrs by Annexin V-FITC/PI staining based flow cytometry analysis (Rvb= 0.2%); assay type: functional
Cell membrane [26] = experiment: Induction of mitochondrial membrane potential loss in human HCT-116 cells assessed as polarized cells at 6.64 uM incubated for 72 hrs by JC-1 staining based flow cytometry analysis (reference value: 99.6 %); assay type: subcellular
HCT-116 [27] = experiment: Induction of nuclear morphological changes in human HCT-116 cells assessed as change in nuclear condensation measured after 48 hrs by DAPI-staining based fluorescence microscopic analysis; assay type: functional, cell-based
HCT-116 [28] = experiment: Cytotoxicity against human HCT-116 cells assessed as inhibition of cell growth measured after 72 hrs by MTT assay; assay type: functional, cell-based; conditions: HCT-116, 72 h
Tubulin = experiment: Inhibition of tubulin polymerization (unknown origin) by absorbance based analysis; assay type: protein-complex assay, Homo sapiens
HCT-116 [29] = experiment: Cell cycle arrest in human HCT-116 cells assessed as accumulation of cells in S phase at 6.64 uM measured after 48 hrs by PI staining based flow cytometry method (reference value: 8.8%); assay type: functional
MCF7 = experiment: Cytotoxicity against human MCF7 cells assessed as inhibition of cell growth measured after 72 hrs by MTT assay; assay type: functional, cell-based; conditions: MCF7, 72 h
HCT-116 [30] = experiment: Induction of apoptosis in human HCT-116 cells assessed as late apoptotic cells at 3.32 uM incubated for 24 hrs by Annexin V-FITC/PI staining based flow cytometry analysis (Rvb= 0.1%); assay type: functional
HCT-116 [31] = experiment: Inhibition of cell invasion in human HCT-116 cells at 3.32 to 13.28 uM measured after 48 hrs by phase contrast microscopic analysis; assay type: functional, cell-based; conditions: dose 3.32-13.28 µM
Cell membrane [32] = experiment: Induction of mitochondrial membrane potential loss in human HCT-116 cells assessed as depolarized cells at 3.32 uM incubated for 72 hrs by JC-1 staining based flow cytometry analysis (reference value: 0.4 %); assay type: subcellular

SMILES: CC(C)(C)S(=O)(=O)NCC1(Sc2nc3ccccc3[nH]2)C(=O)N(Cc2ccc(Br)cc2)c2ccccc21 (stereo unspecified)
- Activity (HCT-116 [1]): Active
- Activity (HCT-116 [2]): Dose-Dependent Effect
- Activity (HCT-116 [3]): 0.3%
- Activity (HCT-116 [4]): Dose-Dependent Effect
- Activity (HCT-116 [5]): 8.6%
- Activity (HCT-116 [6]): Active
- Activity (Cell membrane [7]): 5.9%
- Activity (Cell membrane [8]): 13.3%
- IC50 at 72 h [9]: 38.4 µM
- Activity (HCT-116 [10]): 58.4%
- inhibition (HCT-116 [11]): Dose-Dependent Effect
- Activity (HCT-116 [12]): 32.3%
- Activity (HCT-116 [13]): 27.4%
- Activity (HCT-116 [14]): Active
- Activity (HCT-116 [15]): Active
- Activity (Cell membrane [16]): 86.7%
- IC50 (A549): 19.2 µM
- viability at 13.28 µM (HCT-116 [17]): 4.2%
- Activity (Cell membrane [18]): 97%
- viability at 6.64 µM (HCT-116 [19]): 9.9%
- IC50 (SK-MEL-28): 15.3 µM
- Activity (HCT-116 [20]): 49.2%
- Activity (HCT-116 [21]): 41%
- Activity (HCT-116 [22]): 11.8%
- Activity (HCT-116 [23]): Dose-Dependent Effect
- viability at 3.32 µM (HCT-116 [24]): 4.5%
- Activity (HCT-116 [25]): 21.4%
- Activity (Cell membrane [26]): 94.1%
- Activity (HCT-116 [27]): Dose-Dependent Effect
- IC50 (HCT-116 [28]): 6.64 µM
- IC50 (Tubulin): 9.73 µM
- Activity (HCT-116 [29]): 11.1%
- IC50 (MCF7): 12.8 µM
- Activity (HCT-116 [30]): 53.4%
- inhibition (HCT-116 [31]): Active
- Activity (Cell membrane [32]): 3%
